Source: patent publication US5534497A, “Technetium chelates to be used for determining the renal function” (Mallinckrodt Medical, Inc., priority 1986, dated 1996)

Assays:
[1] = glomerular filtration about 125 ml per minute, total renal clearance 600 to 700 ml per minute; cited from earlier work
[2] = background statement; cited from earlier work
[3] = Biodistribution in mice by organ uptake measurements, relative to Tc99m-MAG3 (iodo-131-Hippuran as reference standard); format: in vivo; details: for Blood: ratio of uptake of compound to uptake of Tc99m-MAG3 / Hepatic (system): ratio of uptake of compound to uptake of Tc99m-MAG3 / Intestines: ratio of uptake of compound to uptake of Tc99m-MAG3 / Kidneys: ratio of uptake of compound to uptake of Tc99m-MAG3 / Liver: ratio of uptake of compound to uptake of Tc99m-MAG3 / Remainder / Rest of the body: ratio of uptake of compound to uptake of Tc99m-MAG3 / Renal (system): ratio of uptake of compound to uptake of Tc99m-MAG3 / Stomach: ratio of uptake of compound to uptake of Tc99m-MAG3 / Urine: ratio of uptake of compound to uptake of Tc99m-MAG3: intravenous, 10 minutes after administration, each normalised to iodo-131-Hippuran; for Secretion characteristics / organ distribution compared with Tc99m-MAG3 (in words): secretion in urine, retention in kidneys, liver, intestines
Method: Tc99m-MAGAG-DA, separated by HPLC, is diluted with physiological saline solution to a concentration of 370 kilobecquerel per mi. Iodo-131-Hippuran is added to this solution as a reference standard. An amount of 0.1 ml of this mixture is injected intravenously into each of the eight mice, so that 37 kilobecquerel of Tc99m-MAGAG-DA and 18.5 kilobecquerel of iodo-131-Hippuran are injected per animal. Measures are taken to collect all the excreted urine. 10 Minutes after the administration the mice are sacrificed. It is ensured that all the blood is collected. All parts of the body are brought in separate tubes and the activity of Tc99m and I131 is determined for each part of the body. From the measured results the relative quantity of both tracer products in urine, kidneys, intestines. liver, blood and the collective remainder of the body is computed. In the same manner, Tc99m-MAGA-DB, separated by HPLC, and Tc99m-mercaptoacetylglycylglycylglycine (Tc99m-MAG3), purified by HPLC, both with iodo-131-Hippuran as a reference standard, are tested in two other groups of 8 and 6 mice, respectively. For all three Tc99m-labelled compounds -- MAGAG-DA, MAGAG-DB and MAG3 -- the relative percentages of Tc99m activity in the various organs are calculated with respect to iodo-131-Hippuran. After this, the ratios of Tc99m-MAGAG-DA and -DB can be calculated with respect to Tc99m-MAG3 in the various organs.
In the same ray as described in Example III the biodistribution of the above compound in mice is determined relative to that of Tc99m-MAG3 by organ uptake measurements.
In the same way as described in Example III the biodistribution of the above compound in mice is determined relative to that of Tc99m-MAG3 by organ uptake measurements.

Molecule | clearance [1] | Secretion by the kidneys (in words) [2] | Blood: ratio of uptake of compound to uptake of Tc99m-MAG3 [3] | Hepatic (system): ratio of uptake of compound to uptake of Tc99m-MAG3 [3] | Intestines: ratio of uptake of compound to uptake of Tc99m-MAG3 [3] | Kidneys: ratio of uptake of compound to uptake of Tc99m-MAG3 [3] | Liver: ratio of uptake of compound to uptake of Tc99m-MAG3 [3] | Remainder / Rest of the body: ratio of uptake of compound to uptake of Tc99m-MAG3 [3] | Renal (system): ratio of uptake of compound to uptake of Tc99m-MAG3 [3] | Stomach: ratio of uptake of compound to uptake of Tc99m-MAG3 [3] | Urine: ratio of uptake of compound to uptake of Tc99m-MAG3 [3] | Secretion characteristics / organ distribution compared with Tc99m-MAG3 (in words) [3]
O=C([O-])CN(CCN(CC(=O)[O-])CC(=O)[O-])CCN(CC(=O)[O-])CC(=O)[O-].[99Tc+4] [chelate of DTPA, Tc99m-diethylene triamine pentascetic acid] | 100 ml of blood plasma per minute | – | – | – | – | – | – | – | – | – | – | –
O=C([O-])CNC(=O)c1ccccc1[131I].[Na+] [iodo-131-Hippuran] | – | secreted actively tubularly | – | – | – | – | – | – | – | – | – | –
Tc99m-mercaptoacetyl-D-alanylglycylglycine [Tc99m-MAAG2-DB] | – | – | 1.17 | 0.84 | 0.95 | 0.66 | 0.79 | 1.45 | 0.96 | 1.40 | 0.99 | more favourable organ distribution than Tc99m-MAG3
Tc99m-mercaptoacetylglycyl-D-alanylglycine [Tc99m-MAGAG-DA] | – | – | 1.12 | 0.60 | 0.44 | 0.36 | 0.68 | 0.90 | 1.05 | 0.83 | 1.13 | significantly better than those of Tc99m-MAG3
Tc99m-mercaptoacetylglycyl-D-alanylglycine [Tc99m-MAGAG-DB] | – | – | 1.20 | 0.59 | 0.41 | 0.37 | 0.68 | 0.94 | 1.07 | 0.85 | 1.14 | significantly better than those of Tc99m-MAG3
Tc99m-mercaptoacetylglycylglycylglycine [Tc99m-MAG3] | – | secreted by the kidneys selectively and slightly faster than iodo-Hippuran | – | – | – | – | – | – | – | – | – | –
